Laboratory results published in patent US11884708B2, “Stapled peptide inhibitors of nemo as potential anti-inflammatory and anti-cancer drugs” (INSTITUT PASTEUR, priority 2015, dated 2024).
Where two headings read alike, the source gives them in different places. Each block holds one compound with its values, some of them ahead of it. Where a SMILES comes first, the peptide text is derived from it. Bridges are numbered along the chain shown (N, C = ends). Where no end group is shown, it is not given here. [ ]: non-standard residue; d: D form. The star is where a group is joined. BODIPYFLEthylmaleimide = Cc1cc(C)n2c1C=C1C=CC(CCC(=O)NCCN3C(=O)CC(*)C3=O)=[N+]1[B-]2(F)F; R8 = C=CCCCCCC[C@@](C)(N)C(=O)O; S5 = C=CCCC[C@](C)(N)C(=O)O

Columns and labels:
NF-κB pathway = NF-κB pathway (Mus musculus, UniProt O88522); assay: NF-κB inhibition assay, LPS-stimulated 70Z3-C3 lacZ reporter cells; type: cell-based; conditions: 70Z3-C3 cells, 2 h peptide then LPS 4 h, N.I = No inhibition observed; for IC50: read-out: IC 50 NF-κB inhibition
NF-κB pathway, sequence (O88522 whole entry): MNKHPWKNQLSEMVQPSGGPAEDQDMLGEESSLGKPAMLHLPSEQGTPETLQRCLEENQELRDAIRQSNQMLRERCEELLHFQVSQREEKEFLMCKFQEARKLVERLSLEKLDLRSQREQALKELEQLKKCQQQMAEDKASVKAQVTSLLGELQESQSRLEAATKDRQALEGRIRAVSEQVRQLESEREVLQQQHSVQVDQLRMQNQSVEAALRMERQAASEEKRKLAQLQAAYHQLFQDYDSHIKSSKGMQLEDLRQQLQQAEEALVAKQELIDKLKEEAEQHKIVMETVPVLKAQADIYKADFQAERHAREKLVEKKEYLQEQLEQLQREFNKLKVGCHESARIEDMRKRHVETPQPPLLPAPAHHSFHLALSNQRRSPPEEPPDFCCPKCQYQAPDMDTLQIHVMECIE
Excerpt: The stable cell line of pre-B lymphocyte 70Z3-C3 cells expressing the lacZ reporter gene under the control of NF-κB was previously described. OCI-Ly3 (ABC-DLBCL, MALT1 dependent) and OCI-Ly7 (GCB-DLBCL). U2932 (ABC-DLBCL, MALT1 independent) were purchased from DSMZ (Deutsche Sammlung von Mikroorganismen and Zellkulturen) and HLY1 (ABC-DLBCL, MALT1 independent). Jurkat T-cells were obtained after transduction of lentiviruses containing a NF-κB reporter luciferase gene as previously described. All cell lines were grown in RPMI 1640 medium supplemented with 10% FBS, 10 μg/ml of streptomycin, 10 U/ml of penicillin and kept at 37° C., in a 5% CO2 humidified incubator. 0.05 mM of β-mercaptoethanol was added for 70Z3-C3. Primary and secondary antibodies were as following: polyclonal rabbit anti NF-κB p65, (sc-372, Santa Cruz Biotechnology, Inc) Alexa-488 coupled goat anti-rabbit IgG1 (Invitrogen) NF-κB inhibition assay was almost similar to those previously described in [1], except that luminescence data were monitored with a Centro XS^3, LB960 luminometer (Berthold technologies.), which is more sensitive. All experiments were performed in duplicates in 96-well plates. […] After 4 h incubation, cells were centrifuged 7 min at 400×g, at 4° C.

70Z3-C3 cells = assay: Cellular uptake of BODIPY-labeled peptides by FACS; type: cell-based; conditions: 10 μM labeled peptide, 2 h, 37° C.
Description: 2.2×10^5 cells in 100 μl of 70Z3-C3 were incubated with either 10 μM or with various doses of 10 μM, 5 μM and 1 μM of labeled-peptides at 37° C., 5% CO2. Similarly to fluorescence microscopy experiments, cells alone or incubated with BODIPY®-labeled BSA (ref) or BODIPY®-UBI devoid of the antennapedia cell penetrating sequence were used as negative control, whereas cells with BA-UBI [1] at 10 μM were used as positive control. After 2 h incubation, cells were washed 4 times with PBS at room temperature, and finally diluted 1:3 in PBS before subjected to FACS analysis. Along with the BODIPY® fluorophore the fluorescence intensity was recorded at 525±25 nm using the Gallios Flow cytometer (Beckman Coulter) to analyse each cells sample. Each internalization peptide was assessed by gating a population of 15,000 events and the data were analysed using Kaluza software version 1.2.
For determination of cellular uptake by flow cytometry, the BA-UBI-SAHND306-Q313 stapled peptide was first incubated with 2.2×10^5 70Z3-C3 cells in […] either at 4° C. or 37° C. for 2 h. Bodipy-labeled BSA, bodipy alone and bodipy-UBI were used as negative controls to verify the washing quality and efficient removal of any non-specific binding at the cell surface before FACS analysis. […] After 2 h of incubation, cells were washed four times with PBS at room temperature and diluted at 1:3 in PBS for FACS analysis. Samples were analyzed as previously described in the European patent (No: 15307137.8).

[1] = CD spectroscopy, α-helical content; type: physicochemical; conditions: 50 μM peptide, phosphate buffer pH 7.0, UBI in TFE taken as 100%
CC2-LZ domain of NEMO = CC2-LZ domain of NEMO (Mus musculus, UniProt O88522); assay: Fluorescence anisotropy/polarization binding assay; conditions: for Kd: fixed peptide concentration 0.1 μM
CC2-LZ domain of NEMO, sequence (O88522 242-343 limits assumed): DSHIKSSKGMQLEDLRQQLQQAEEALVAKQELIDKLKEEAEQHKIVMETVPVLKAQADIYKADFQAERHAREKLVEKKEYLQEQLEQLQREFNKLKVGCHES
Description: Measurements were performed on a Tecan infinite F500 equipped with polarizing filters and using excitation and emission wavelengths at 485 nm and 535 nm, respectively. Anisotropy data were calculated using the Magellan software version 6.5. Prior experiments, the mouse CC2-LZ was extensively dialyzed in binding buffer containing 20 mM HEPES pH 7.4, 100 mM NaCl, and 0.05% P20 detergent (v/v). All experiments were performed in a 384 well plate (vol 25 μl) at room temperature. The BODIPY®-labeled peptide concentrations were fixed at 0.1 or 10 μM whereas the CC2-LZ concentration varied from 0 to 100 μM. Reference calibrated at 22 mP, was based on the fluorescence of the peptide alone. Each experimental binding curve was determined from at least 10 independent concentration points. The G-factor was calculated as previously described in Agou et al. [7], with a value of 0.75, which was observed constant within 5% upon all titrations. For analysis, the blank value corresponding to the value of buffer alone, was subtracted from all titration data.
All NEMO peptides were conjugated to an extra N-terminal cysteine with the fluorophore BODIPY® or FITC to determine their binding affinity for the CC2-LZ domain of NEMO (also called NOA or UBAN) by fluorescence polarization. For each peptide titration, various concentration of the target ranging from 0 to 100 μM and a fixed concentration of peptide at 0.1 or 10 μM were used at 25° C. […] For these reasons, all further titration experiments were performed with a fixed peptide concentration of 0.1 μM unless otherwise indicated.

[2] = Temperature-induced denaturation followed by CD; type: physicochemical; conditions: 30 μM or 300 μM, ΔCp ≈ 0
Description: Temperature-induced denaturation experiments were performed by measuring the ellipticity at 222 nm from 1° C. to 95° C. in 1° C. steps, at a rate of 1° C./min, with a 2 nm bandwidth. Thermodynamic parameters including the melting temperature (Tm) and the van't Hoff enthalpy change at the melting temperature (ΔHm) were determined by fitting the denaturation curves with the Gibbs-Helmholtz equation as described elsewhere, [10]. The heat capacity change (ΔCp) was assumed to be 0 as judged by ΔHm which yielded similar values within 10% at two independent peptide concentrations (30 and 300 μM). The ellipticity was converted to differential extinction coefficient Δε (M^−1·cm^−1) per residue taking into account the peptide concentration determined by amino acid analysis.
Thermal stability of the peptides was also investigated by performing thermal denaturation profiles followed by CD (FIGS. 1 C and D and Table III). […] Indeed, the helicity of UBI-Aib (49%) is only 1.16-fold increased at 1° C. compared to UBI (42%), while its melting temperature (Tm=−8° C.) is 2.25 times higher than that of UBI (Tm=−18° C.).

Compound: LKAQAX2IYKARFX5AERHAREK (LKAQA[R8]IYKARF[S5]AERHAREK; staple 6-13) [UBI-SAHN D306-Q313]
IC 50 NF-κB inhibition (NF-κB pathway): N.I*
FACS peak median, first or only peak (70Z3-C3 cells): 8
FACS peak median, second peak (70Z3-C3 cells): 52

Compound: CC[C@H](C)[C@@H]1NC(=O)[C@H](CC(=O)O)NC(=O)[C@H](C)NC(=O)[C@H](CCC(N)=O)NC(=O)[C@](C)(NC(=O)[C@H](CCCCN)NC(=O)[C@H](CC(C)C)NC(=O)[C@H](CCCCN)NC(=O)[C@H](CCCCN)NC(=O)[C@H](Cc2c[nH]c3ccccc23)NC(=O)[C@H](CCCCN)NC(=O)[C@H](CCSC)NC(=O)[C@H](CCCNC(=N)N)NC(=O)[C@H](CCCNC(=N)N)NC(=O)[C@H](CC(N)=O)NC(=O)[C@H](CCC(N)=O)NC(=O)[C@H](Cc2ccccc2)NC(=O)[C@H](Cc2c[nH]c3ccccc23)NC(=O)[C@@H](NC(=O)[C@H](CCCCN)NC(=O)[C@@H](NC(=O)[C@H](CCC(N)=O)NC(=O)[C@H](CCCNC(=N)N)NC(=O)[C@H](CSC2CC(=O)N(CCNC(=O)CCC3=[N+]4C(=Cc5c(C)cc(C)n5[B-]4(F)F)C=C3)C2=O)NC(C)=O)[C@@H](C)CC)[C@@H](C)CC)CCCCCCC=CCCC[C@@](C)(C(=O)N[C@@H](CCCNC(=N)N)C(=O)N[C@@H](Cc2ccccc2)C(=O)N[C@@H](CCC(N)=O)C(=O)N[C@@H](C)C(=O)N[C@@H](CCC(=O)O)C(=O)N[C@@H](CCCNC(=N)N)C(=O)N[C@@H](Cc2c[nH]cn2)C(=O)N[C@@H](C)C(=O)N[C@@H](CCCNC(=N)N)C(=O)N[C@@H](CCC(=O)O)C(=O)N[C@@H](CCCCN)C(N)=O)NC(=O)[C@H](CCCCN)NC(=O)[C@H](Cc2ccc(O)cc2)NC1=O (single isomer, unassigned) [A-UBI-SAHN A303-A310 (B)]
IC50 (NF-κB pathway): 600 nM

Compound: CC[C@H](C)[C@H](NC(=O)[C@H](CC(=O)O)NC(=O)[C@H](C)NC(=O)[C@H](CCC(N)=O)NC(=O)[C@H](C)NC(=O)[C@H](CCCCN)NC(=O)[C@@H](N)CC(C)C)C(=O)N[C@@H](Cc1ccc(O)cc1)C(=O)N[C@@H](CCCCN)C(=O)N[C@@H](C)C(=O)N[C@@H](CCCNC(=N)N)C(=O)N[C@@H](Cc1ccccc1)C(=O)N[C@@H](CCC(N)=O)C(=O)N[C@@H](C)C(=O)N[C@@H](CCC(=O)O)C(=O)N[C@@H](CCCNC(=N)N)C(=O)N[C@@H](Cc1c[nH]cn1)C(=O)N[C@@H](C)C(=O)N[C@@H](CCCNC(=N)N)C(=O)N[C@@H](CCC(=O)O)C(=O)N[C@@H](CCCCN)C(=O)O [UBI, reference compound] (H-LKAQADIYKARFQAERHAREK-OH)
IC 50 NF-κB inhibition (NF-κB pathway): N.I*

Compound: CC[C@H](C)[C@H](NC(=O)[C@H](CCCCN)NC(=O)[C@@H](NC(=O)[C@H](CCC(N)=O)NC(=O)[C@H](CCCNC(=N)N)NC(=O)[C@H](CSC1CC(=O)N(CCNC(=O)CCC2=[N+]3C(=Cc4c(C)cc(C)n4[B-]3(F)F)C=C2)C1=O)NC(C)=O)[C@@H](C)CC)C(=O)N[C@@H](Cc1c[nH]c2ccccc12)C(=O)N[C@@H](Cc1ccccc1)C(=O)N[C@@H](CCC(N)=O)C(=O)N[C@@H](CC(N)=O)C(=O)N[C@@H](CCCNC(=N)N)C(=O)N[C@@H](CCCNC(=N)N)C(=O)N[C@@H](CCSC)C(=O)N[C@@H](CCCCN)C(=O)N[C@@H](Cc1c[nH]c2ccccc12)C(=O)N[C@@H](CCCCN)C(=O)N[C@@H](CCCCN)C(=O)N[C@@H](CC(C)C)C(=O)N[C@@H](CCCCN)C(=O)N[C@@H](C)C(=O)N[C@@H](CCC(N)=O)C(=O)N[C@@H](C)C(=O)N[C@]1(C)CCCCCCC=CCCC[C@@](C)(C(=O)N[C@@H](C)C(=O)N[C@@H](CCC(=O)O)C(=O)N[C@@H](CCCNC(=N)N)C(=O)N[C@@H](Cc2c[nH]cn2)C(=O)N[C@@H](C)C(=O)N[C@@H](CCCNC(=N)N)C(=O)N[C@@H](CCC(=O)O)C(=O)N[C@@H](CCCCN)C(N)=O)NC(=O)[C@H](Cc2ccccc2)NC(=O)[C@H](CCCNC(=N)N)NC(=O)[C@H](C)NC(=O)[C@H](CCCCN)NC(=O)[C@H](Cc2ccc(O)cc2)NC(=O)[C@H]([C@@H](C)CC)NC1=O (single isomer, unassigned) [A-UBI-SAHN D306-Q313 (A)]
IC50 (NF-κB pathway): 600 nM
Kd (CC2-LZ domain of NEMO; peptides with antennapedia, read-out: KD): 0.06 µM

The next lines start with results.

IC 50 NF-κB inhibition (NF-κB pathway): N.I*
Compound: LKX1QADIYKX4RFQAERHAREK [UBI-SAHN A303-A310]
FACS peak median, first or only peak (70Z3-C3 cells): 8

IC 50 NF-κB inhibition (NF-κB pathway): N.I*
Compound: CC[C@H](C)[C@H](NC(=O)[C@H](CC(=O)O)NC(=O)C(C)(C)NC(=O)[C@H](CCC(N)=O)NC(=O)C(C)(C)NC(=O)[C@H](CCCCN)NC(=O)[C@@H](N)CC(C)C)C(=O)N[C@@H](Cc1ccc(O)cc1)C(=O)N[C@@H](CCCCN)C(=O)NC(C)(C)C(=O)N[C@@H](CCCNC(=N)N)C(=O)N[C@@H](Cc1ccccc1)C(=O)N[C@@H](CCC(N)=O)C(=O)NC(C)(C)C(=O)N[C@@H](CCC(=O)O)C(=O)N[C@@H](CCCNC(=N)N)C(=O)N[C@@H](Cc1c[nH]cn1)C(=O)NC(C)(C)C(=O)N[C@@H](CCCNC(=N)N)C(=O)N[C@@H](CCC(=O)O)C(=O)N[C@@H](CCCCN)C(=O)O [UBI-AIB, LKAibQAibDIYKAibRFQAibERHAibREK] (HELM PEPTIDE1{L.K.[Aib].Q.[Aib].D.I.Y.K.[Aib].R.F.Q.[Aib].E.R.H.[Aib].R.E.K}$$$$V2.0)

α-helical content at 1° C. [1]: 65%
IC 50 NF-κB inhibition (NF-κB pathway): N.I*
Kd (CC2-LZ domain of NEMO; read-out: Binding affinity (FP) at 0.1 μM): ~360 µM
Binding affinity (FP) at 10 μM (CC2-LZ domain of NEMO; fixed peptide concentration 10 μM): Very weak
ΔS [2]: −11 cal. mol^−1.K^−1
Tm ([2]; thermal denaturation by CD): 15 ± 0.3 C°
ΔH ([2]; van't Hoff enthalpy change at Tm): -3200 cal/mol
Compound: CC[C@H](C)[C@H](NC(=O)[C@H](CC(=O)O)NC(=O)[C@H](C)NC(=O)[C@H](CCC(N)=O)NC(=O)[C@H](C)NC(=O)[C@H](CCCCN)NC(=O)[C@H](CC(C)C)NC(=O)[C@H](CSC1CC(=O)N(CCNC(=O)CCC2=[N+]3C(=Cc4c(C)cc(C)n4[B-]3(F)F)C=C2)C1=O)NC(C)=O)C(=O)N[C@@H](Cc1ccc(O)cc1)C(=O)N[C@@H](CCCCN)C(=O)N[C@@]1(C)CCCC=CCCC[C@@](C)(C(=O)N[C@@H](CCC(=O)O)C(=O)N[C@@H](CCCNC(=N)N)C(=O)N[C@@H](Cc2c[nH]cn2)C(=O)N[C@@H](C)C(=O)N[C@@H](CCCNC(=N)N)C(=O)N[C@@H](CCC(=O)O)C(=O)N[C@@H](CCCCN)C(N)=O)NC(=O)[C@H](CCC(N)=O)NC(=O)[C@H](Cc2ccccc2)NC(=O)[C@H](CCCNC(=N)N)NC1=O (some centres unmarked) [UBI-SAHN A310-A314, LKAQADIYKX4RFQX6ERHAREK] (Ac-C(BODIPYFLEthylmaleimide)LKAQADIYK[S5]RFQ[S5]ERHAREK-NH2; staple 11-15)
